Results published in US6127333A, “Conjugates useful in the treatment of prostate cancer” (priority 1998, dated 2000).

Target: T1, York PSA (enzymatically active free PSA) (Homo sapiens, UniProt P07288)
T1 construct: 50% cleavage of the noted oligopeptide-cytotoxic agent conjugates with enzymatically active free PSA
Test: Recognition/cleavage of oligopeptide-vinca drug conjugates by free PSA
Assay type: biochemical
Settings: PSA digestion buffer pH7.4, conjugate to PSA molar ratio 100 to 1, HPLC; when n > 1 value is an average
Method: Alternatively, the PSA digestion buffer utilized is 50 mM tris(hydroxymethyl)aminomethane pH7.4, 140 mM NaCl. The reaction is quenched after various reaction times by the addition of trifluoroacetic acid (TFA) to a final 1% (volume/volume). Alternatively the reaction is quenched with 10 mM ZnCl2. The quenched reaction was analyzed by HPLC on a reversed-phase C18 column using an aqueous 0.1%TFA/acetonitrile gradient. […] Unless otherwise indicated, the acetate salt of the conjugate was tested.

T1 sequence (P07288 25-261): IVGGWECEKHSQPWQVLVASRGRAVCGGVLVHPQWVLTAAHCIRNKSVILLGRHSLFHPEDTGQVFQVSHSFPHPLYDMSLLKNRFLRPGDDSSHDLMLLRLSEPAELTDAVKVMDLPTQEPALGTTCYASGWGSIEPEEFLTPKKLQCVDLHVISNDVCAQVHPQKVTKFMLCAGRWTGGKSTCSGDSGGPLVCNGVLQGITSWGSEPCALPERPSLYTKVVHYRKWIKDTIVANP

Substance | Time to 50% Substrate Cleavage by York PSA [min]
4-des-Acetylvinblastine-23-(N-methoxy-diethyleneoxyacetyl-4-trans-L-Hyp-Ser-Ser-Chg-Gln-Ser-Val-BDAM) amide acetate salt | 14
4-des-Acetylvinblastine-23-(N-Acetyl-Ser-Ser-Ser-Chg-Gln-Ser-Val-BDAM) amide acetate salt [Ac-SSSChgQSV-1,4-BDAM-(dAc)-VIN] | 10
